Where two headings read alike, the source gives them in different places. Peptide text beside a SMILES is read from it.
Target: T1, ATX1 AXH (residues A567–K689 of human ATX1) (Homo sapiens, UniProt P54253)
T1 construct: Recombinant ATX1 AXH (residues A567–K689 of human ATX1); His6-GST (N, cleaved yes); made in house; host or cells: E. coli BL21(DE3)pLysS
T1 sequence (P54253 566-688 limits assumed): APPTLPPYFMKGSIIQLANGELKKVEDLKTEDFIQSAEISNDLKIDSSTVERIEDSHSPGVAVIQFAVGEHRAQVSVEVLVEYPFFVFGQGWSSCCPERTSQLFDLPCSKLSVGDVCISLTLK
Assay: ITC binding of CIC peptides to ATX1 AXH
Conditions: 25°C, 50 mM Tris-HCl pH 7, 50 mM NaCl, 2 mM TCEP, averages of three measurements, read-out: dissociation constant (Kd)
Procedure: Binding affinities of AXH with CIC ligands were measured at 25°C by a MicroCal Omega VP-ITC (MicroCal Inc., Northampton, USA). Both protein and peptides buffers were 50 mM Tris-HCl pH 7, 50 mM NaCl, 2 mM TCEP. Solutions of 0.041 mM AXH in the cell were titrated by injections of a total of 283 µl of 0.410 mM peptide in the syringe in 21 aliquots. Data were processed with the software MicroCal Origin version 5.0 provided by the manufacturer. All dissociation constants were averages of three measurements.

[1] = 0.041 mM AXH in cell, 0.410 mM peptide in syringe

| Compound | Kd [1] | Kd |
| --- | --- | --- |
| CC(C)C[C@H](NC(=O)[C@H](Cc1ccccc1)NC(=O)[C@@H]1CCCN1C(=O)[C@H](C)NC(=O)[C@H](CC(C)C)NC(=O)[C@H](CO)NC(=O)[C@H](Cc1c[nH]cn1)NC(=O)[C@H](Cc1c[nH]c2ccccc12)NC(=O)[C@@H]1CCCN1C(=O)[C@H](Cc1ccccc1)NC(=O)[C@@H](N)C(C)C)C(=O)N[C@@H](C)C(=O)N1CCC[C@H]1C(=O)N[C@@H](CO)C(=O)N[C@@H](CCC(N)=O)C(=O)O [V41] (H-VFPWHSLAPFLAPSQ-OH) | 70 nM | – |
| CC(C)C[C@H](NC(=O)[C@H](Cc1ccccc1)NC(=O)[C@@H]1CCCN1C(=O)[C@@H](NC(=O)[C@H](C)NC(=O)[C@H](CO)NC(=O)[C@H](Cc1c[nH]cn1)NC(=O)[C@H](Cc1c[nH]c2ccccc12)NC(=O)[C@@H]1CCCN1C(=O)[C@H](Cc1ccccc1)NC(=O)[C@@H](N)C(C)C)C(C)C)C(=O)N[C@@H](C)C(=O)N1CCC[C@H]1C(=O)N[C@@H](CO)C(=O)N[C@@H](CCC(N)=O)C(=O)O [L40] (H-VFPWHSAVPFLAPSQ-OH) | 500 nM | – |
| CC(C)C[C@H](NC(=O)[C@H](C)NC(=O)[C@@H]1CCCN1C(=O)[C@@H](NC(=O)[C@H](CC(C)C)NC(=O)[C@H](CO)NC(=O)[C@H](Cc1c[nH]cn1)NC(=O)[C@H](Cc1c[nH]c2ccccc12)NC(=O)[C@@H]1CCCN1C(=O)[C@H](Cc1ccccc1)NC(=O)[C@@H](N)C(C)C)C(C)C)C(=O)N[C@@H](C)C(=O)N1CCC[C@H]1C(=O)N[C@@H](CO)C(=O)N[C@@H](CCC(N)=O)C(=O)O [F43] (H-VFPWHSLVPALAPSQ-OH) | 60 nM | – |
| CC(C)C[C@H](NC(=O)[C@H](Cc1ccccc1)NC(=O)[C@@H]1CCCN1C(=O)[C@@H](NC(=O)[C@H](CC(C)C)NC(=O)[C@H](CO)NC(=O)[C@H](C)NC(=O)[C@H](Cc1c[nH]c2ccccc12)NC(=O)[C@@H]1CCCN1C(=O)[C@H](Cc1ccccc1)NC(=O)[C@@H](N)C(C)C)C(C)C)C(=O)N[C@@H](C)C(=O)N1CCC[C@H]1C(=O)N[C@@H](CO)C(=O)N[C@@H](CCC(N)=O)C(=O)O [H38] (H-VFPWASLVPFLAPSQ-OH) | 50 nM | – |

The next molecules have a lower Kd [1] than those just listed; values first:

| Kd [1] | Kd | Compound |
| --- | --- | --- |
| 20 nM | – | CC(C)C[C@H](NC(=O)[C@H](Cc1ccccc1)NC(=O)[C@@H]1CCCN1C(=O)[C@@H](NC(=O)[C@H](CC(C)C)NC(=O)[C@H](CO)NC(=O)[C@H](Cc1c[nH]cn1)NC(=O)[C@H](Cc1c[nH]c2ccccc12)NC(=O)[C@@H]1CCCN1C(=O)[C@H](Cc1ccccc1)NC(=O)[C@@H](N)C(C)C)C(C)C)C(=O)N[C@@H](C)C(=O)N[C@@H](C)C(=O)N[C@@H](CO)C(=O)N[C@@H](CCC(N)=O)C(=O)O [P46] (H-VFPWHSLVPFLAASQ-OH) |
| 40 nM | – | CC(C)C[C@H](NC(=O)[C@H](Cc1ccccc1)NC(=O)[C@@H]1CCCN1C(=O)[C@@H](NC(=O)[C@H](CC(C)C)NC(=O)[C@H](CO)NC(=O)[C@H](Cc1c[nH]cn1)NC(=O)[C@H](Cc1c[nH]c2ccccc12)NC(=O)[C@H](C)NC(=O)[C@H](Cc1ccccc1)NC(=O)[C@@H](N)C(C)C)C(C)C)C(=O)N[C@@H](C)C(=O)N1CCC[C@H]1C(=O)N[C@@H](CO)C(=O)N[C@@H](CCC(N)=O)C(=O)O [P36] (H-VFAWHSLVPFLAPSQ-OH) |
| 20 nM | – | CC(C)C[C@H](NC(=O)[C@H](Cc1ccccc1)NC(=O)[C@@H]1CCCN1C(=O)[C@@H](NC(=O)[C@H](CC(C)C)NC(=O)[C@H](CO)NC(=O)[C@H](Cc1c[nH]cn1)NC(=O)[C@H](Cc1c[nH]c2ccccc12)NC(=O)[C@@H]1CCCN1C(=O)[C@H](Cc1ccccc1)NC(=O)[C@H](C)N)C(C)C)C(=O)N[C@@H](C)C(=O)N1CCC[C@H]1C(=O)N[C@@H](CO)C(=O)N[C@@H](CCC(N)=O)C(=O)O [V34] (H-AFPWHSLVPFLAPSQ-OH) |
| 30 nM | ~33 nM | CC(C)C[C@H](NC(=O)[C@H](Cc1ccccc1)NC(=O)[C@@H]1CCCN1C(=O)[C@@H](NC(=O)[C@H](CC(C)C)NC(=O)[C@H](CO)NC(=O)[C@H](Cc1c[nH]cn1)NC(=O)[C@H](Cc1c[nH]c2ccccc12)NC(=O)[C@@H]1CCCN1C(=O)[C@H](Cc1ccccc1)NC(=O)[C@@H](N)C(C)C)C(C)C)C(=O)N[C@@H](C)C(=O)N1CCC[C@H]1C(=O)N[C@@H](CO)C(=O)N[C@@H](CCC(N)=O)C(=O)O [L-CICp] (H-VFPWHSLVPFLAPSQ-OH) |
